Results from patent US20140005103A1, “SULFONAMIDE DERIVATIVES AND METHODS OF USE THEREOF FOR IMPROVING THE PHARMACOKINETICS OF A DRUG” (Merck, Sharp & Dohme Corp., priority 2012, published 2014).

Assays:
human CYP11B1 = target: T1, human CYP11B1 (Homo sapiens, UniProt P15538); test: IC50 vs CYP11B1 by cortisol synthesis in V79 cells; type: cell-based; conditions: V79 cells expressing human CYP11B1, 1500 nM RSS, cortisol HTRF; test concentrations 0.5-10000 nM
T1 construct: expressed in transfected cells
T1 sequence (P15538 25-503): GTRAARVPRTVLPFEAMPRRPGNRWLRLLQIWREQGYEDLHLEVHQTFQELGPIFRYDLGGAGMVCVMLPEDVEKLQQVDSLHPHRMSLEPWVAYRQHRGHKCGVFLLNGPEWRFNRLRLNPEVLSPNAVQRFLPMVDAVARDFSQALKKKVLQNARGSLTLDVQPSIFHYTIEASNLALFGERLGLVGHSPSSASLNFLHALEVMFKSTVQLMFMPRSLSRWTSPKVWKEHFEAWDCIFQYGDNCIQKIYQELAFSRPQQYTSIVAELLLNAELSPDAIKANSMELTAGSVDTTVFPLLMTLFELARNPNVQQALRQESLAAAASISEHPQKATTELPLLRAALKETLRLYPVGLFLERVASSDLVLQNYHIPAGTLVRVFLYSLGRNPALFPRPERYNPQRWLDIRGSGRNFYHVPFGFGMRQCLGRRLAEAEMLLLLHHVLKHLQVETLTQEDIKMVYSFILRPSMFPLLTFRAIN
Description: Determination of IC50 vs CYP11B1/CYP11B2 by Measurement of Cortisol/Aldosterone Synthesis
This assay was performed in a standard 384-well plate design using cultured V79 cells stably expressing human CYP11B1 or human CYP11B2. Test compounds at 10 concentrations (for example, 10000, 3333.3, 1111.1, 370.4, 123.5, 41.2, 13.7, 4.6, 1.5 and 0.5 nM) were added in 384-well plate after the cell-seeding procedure. The incubation substrate contains 1500 nM RSS for CYP11B1 assay/750 nM DOC for CYP11B2 assay. The
Cortisol/Aldosterone production of cell culture supernatant was determined by Cortisol/Aldosterone HTRF kit after for about 15 hours incubation at RT (protect from light). IC50 values were calculated from the percent inhibition observed for each test compound at 10 concentrations.
The assay plate was read using Envision (Perkin Elmer, Waltham, Mass.) at 665 nm and 590 nm (using Filter Barcode of 217#, 205#; Mirror Barcode of 446#).
Data are analyzed using Assay Data Analyzer. All ratio data (665 nm/590 nm) are back calculated according to the standard curve, resulting in Cortisol/Aldosterone concentrations. IC50 values are reported as the Inflection Point (IP) of a four parameter fit of the titration data.
(§1) The following equation was used to calculate the % inhibition:
% Activity=100×{1−(Sample_back calculated Cortisol/Aldosterone concentration−LC_back calculated Cortisol/Aldosterone concentration)/(HC_back calculated Cortisol/Aldosterone concentration−LC_back calculated Cortisol/Aldosterone concentration)}

CYP3A4 = CYP3A4 (Homo sapiens, UniProt P08684); test: IC50 vs CYP3A by inhibition of lopinavir metabolism in human liver microsomes; type: biochemical; conditions: pH 7.4, human liver microsomes, 1.5 μM lopinavir, 8 min at 37° C., test concentrations 0.098-100 nM, read-out: 3A4(LPV)
Sequence of CYP3A4 (P08684 2-503): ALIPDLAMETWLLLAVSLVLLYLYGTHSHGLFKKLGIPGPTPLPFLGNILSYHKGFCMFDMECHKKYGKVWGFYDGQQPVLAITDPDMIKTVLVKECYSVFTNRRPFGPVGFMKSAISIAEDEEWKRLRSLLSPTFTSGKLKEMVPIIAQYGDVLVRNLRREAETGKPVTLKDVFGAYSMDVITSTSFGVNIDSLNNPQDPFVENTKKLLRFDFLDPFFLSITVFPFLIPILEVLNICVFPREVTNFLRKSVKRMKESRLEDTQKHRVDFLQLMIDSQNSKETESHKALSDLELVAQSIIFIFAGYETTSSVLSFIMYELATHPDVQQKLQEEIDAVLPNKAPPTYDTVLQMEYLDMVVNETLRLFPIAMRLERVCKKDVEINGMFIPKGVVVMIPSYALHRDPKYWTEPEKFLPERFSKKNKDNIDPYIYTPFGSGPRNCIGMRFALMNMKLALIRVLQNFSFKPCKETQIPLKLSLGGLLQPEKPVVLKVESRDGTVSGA
Description: Determination of IC50 vs CYP3A by Measurement of Inhibition of Lopinavir Metabolism
This assay was performed in a standard 96-well plate design. IC50 values were calculated from the percent inhibition observed for each test compound at 6 concentrations (for example, 0.098, 0.391, 1.56, 6.25, 25 and 100 nM). The incubation substrate mix contains 1.5 μM lopinavir, 0.01 mg/mL protein human liver microsomes (BD Gentest), 1 mM NAPDH, 3.3 mM MgCl2 and 100 mM potassium phosphate buffer (pH 7.4). The production of the sum of three hydroxylated metabolites (M2: 6-hydroxy lopinavir, M3: 4-hydroxy lopinavir, M4: 4-hydroxy lopinavir (epimer of M3), Kumar et al., 1999) was determined after incubation for 8 min at 37° C. Quantitation of the metabolite peak area ratio against an internal standard (tolbutamide) was determined by LC/MS/MS analysis following acetonitrile treatment of the incubations.
Samples were analyzed in the MRM mode with a SCIEX API-4000 mass spectrometer (Applied Biosystems, Foster City, Calif.), with a Shimadzu LC-20 AD pump (Shimadzu corporation, Kyoto, JP) and a CTC PAL autosampler (Agilent Technologies, Switzerland). A Phenomenex, Luna, 5 μm, 100 A, 2.00×30 mm HPLC column was used for the separation. The mobile phases were: (A) 0.1% formic acid in water and (B) 0.1% formic acid in acetonitrile. The binary gradient was as follows.
The peak area ratio of the analyte to the internal standard was used to quantify the metabolite. The values of peak area ratios in the presence of test compound were compared to those of maximum or minimum controls and were expressed as % inhibition by interpolating between the maximum and minimum peak area ratios. Incubations with no inhibitor were defined as the maxima and with 5 μM ketoconazole were defined as the minima
as §1
[1−[(X−Low control)/(High control−Low control)]]*100
For the IC50 calculation, SigmaPlot was used to plot the mean % inhibition versus the test compound concentrations and for non-linear regression analysis of the data. Depending on the range of data points defining the inhibition curve, the data may have been fit to the 4-parameter logistic equation.

| SMILES | IC50 (human CYP11B1) [nM] | IC50 at 8 min (CYP3A4) [nM] |
| --- | --- | --- |
| C[C@H](c1ccc(F)cc1)n1cncc1CN1CCN(S(=O)(=O)c2cnc(N3CCN4C[C@@H](CN)C[C@H]4C3)s2)CC1 [Compound 10] | 1910 | < 0.98 |
| C[C@H](c1ccc(F)cc1)n1cncc1CN1CCN(S(=O)(=O)c2cnc(N3CC(=O)N4C[C@H](O)C[C@H]4C3)s2)CC1 [Compound 16] | > 10000 | 5.2 |
| C[C@H](c1ccc(F)cc1)n1cncc1CN1CCN(S(=O)(=O)c2cnc(N3CCN4C[C@H](O)CC[C@H]4C3)s2)CC1 [Compound 19] | 1850 | 1.7 |
| C[C@H](c1ccc(F)cc1)n1cncc1CN1CCN(S(=O)(=O)c2cnc(N3CCN(C4CCN(C)CC4)CC3)s2)CC1 [Compound 9] | 2040 | 2.8 |
| CN1CCN(c2ncc(S(=O)(=O)N3CCN(Cc4cncn4CCOc4ccc(F)cn4)CC3)s2)CC1 [Compound 33] | 4750 | 2.3 |
| C[C@H](c1ccc(F)cc1)n1cncc1CN1CCN(S(=O)(=O)c2cnc(N3C[C@@H]4C[C@@H](O)CN4C[C@@H]3C)s2)CC1 [Compound 21] | 3920 | 1.9 |
| C[C@H](c1ccc(F)cc1)n1cncc1CN1CCN(S(=O)(=O)c2cnc(N3CCN(C)CC3)s2)CC1 [Compound 2] | 215 | 1 |
| C[C@H](c1ccc(F)cc1)n1cncc1CN1CCN(S(=O)(=O)c2cnc(N3CCN4C[C@H](O)C[C@H]4C3)s2)CC1 [Compound 5] | 2000 | 3.8 |
| C[C@H](c1ccc(F)cc1)n1cncc1CN1CCN(S(=O)(=O)c2cnc(N3CCN4C[C@H](O)C[C@@H]4C3)s2)CC1 [Compound 6] | 1560 | 1.4 |
| C[C@H](c1ccc(F)cc1)n1cncc1C1C(=O)OCC2CN(S(=O)(=O)c3cnc(Nc4ccc(C(F)(F)F)cn4)s3)CCN21 (stereo partly drawn) [Compound 39] | 2480 | 8 |
| C[C@H](c1ccc(F)cc1)n1cncc1CN1CCN(S(=O)(=O)c2cnc(N3CCN4C[C@H](O)C[C@H]4C3=O)s2)CC1 [Compound 18] | 2590 | 1.1 |
| C[C@H](c1ccc(F)cc1)n1cncc1CN1CCN(S(=O)(=O)c2cnc(N3CCN4C[C@H](O)CC4(C)C3)s2)CC1 (stereo partly drawn) [Compound 24] | 4270 | 1.9 |
| C[C@H](c1ccc(F)cc1)n1cncc1CN1CCN(S(=O)(=O)c2cnc(N3CCNCC3)cn2)CC1 [Compound 30] | 4510 | 3.6 |
| C[C@H](c1ccc(F)cc1)n1cncc1CN1CCN(S(=O)(=O)c2ccc(N3CCNCC3)cn2)CC1 [Compound 28] | 3550 | 4.4 |
| C[C@H](c1ccc(C#N)cc1)n1cncc1CN1CCN(S(=O)(=O)c2cnc(Nc3ccc(C(F)(F)F)cn3)s2)CC1 [Compound 4] | 225 | < 0.1 |
| C[C@H](c1ccc(F)cc1)n1cncc1CN1CCN(S(=O)(=O)c2cnc(N3CC[C@@H](N4CCOCC4)[C@H](F)C3)s2)CC1 [Compound 20] | 1020 | 4.1 |
| CC(c1cncn1[C@H](C)c1ccc(F)cc1)N1CCN(S(=O)(=O)c2cnc(N3CCN4C[C@H](O)C[C@H]4C3)s2)CC1 (stereo partly drawn) [Compound 37] | 3810 | 4.1 |

| SMILES | IC50 (human CYP11B1) [nM] | IC50 at 8 min (CYP3A4) [nM] |
| --- | --- | --- |
| C[C@H](c1ccc(F)cc1)n1cncc1CN1CCN(S(=O)(=O)c2cnc(N3CCNCC3)s2)CC1 [Compound 1] | 1770 | 1.4 |
| C[C@H](c1ccc(F)cc1)n1cncc1CN1CCN(S(=O)(=O)c2cnc(N3CCC(N)(CO)CC3)s2)CC1 [Compound 25] | 6930 | 1.9 |
| C[C@H](c1ccc(F)cc1)n1cncc1CN1CCN(S(=O)(=O)c2cnc(N3CC[C@@H](N)[C@H](F)C3)s2)CC1 [Compound 11] | 1100 | < 0.98 |
| CC1CN(c2ncc(S(=O)(=O)N3CCN(Cc4cncn4[C@H](C)c4ccc(F)cc4)CC3)s2)C[C@@H]2C[C@@H](O)CN12 (stereo partly drawn) [Compound 23] | 1220 | 1.6 |
| C[C@H](c1ccc(F)cc1)n1cncc1C1COCC2CN(S(=O)(=O)c3cnc(Nc4ccccn4)s3)CCN21 (stereo partly drawn) [Compound 40] | 1150 | 0.8 |
| C[C@H](c1ccc(F)cc1)n1cncc1CN1CCN(S(=O)(=O)c2cnc(N3CCC(S(C)(=O)=O)C3)s2)CC1 (stereo partly drawn) [Compound 8] | > 10000 | 1.8 |
| CC1CN2C[C@H](O)C[C@H]2CN1c1ncc(S(=O)(=O)N2CCN(Cc3cncn3[C@H](C)c3ccc(F)cc3)CC2)s1 (single isomer, unassigned) [Compound 22] | 1160 | 1.3 |
| C[C@H](c1ccc(F)cc1)n1cncc1CN1CCN(S(=O)(=O)c2cnc(N3CC[C@@H]4NCCO[C@H]4C3)s2)CC1 [Compound 15] | 1710 | 1.2 |
| C[C@H](c1ccc(F)cc1)n1cncc1CN1CCN(S(=O)(=O)c2cnc(N3CCN4CCC(O)[C@H]4C3)s2)CC1 (stereo partly drawn) [Compound 27] | 1570 | 2.6 |
| CN1CCN(c2ncc(S(=O)(=O)N3CCN(Cc4cncn4CCOc4ccc(Cl)cc4)CC3)s2)CC1 [Compound 32] | 1580 | 1.2 |
| C[C@H](c1ccc(F)cc1)n1cncc1CN1CCN(S(=O)(=O)c2cnc(N3CCN4C(=O)OC[C@H]4C3)s2)CC1 [Compound 26] | 3040 | 1.5 |
| C[C@H](c1ccc(F)cc1)n1cnnc1CN1CCN(S(=O)(=O)c2cnc(N3CCN4C[C@H](O)C[C@H]4C3)s2)CC1 [Compound 42] | 7800 | 32 |
| C[C@H](c1ccc(F)cc1)n1cncc1CN1CCN(S(=O)(=O)c2cnc(NCC(F)CN)s2)CC1 (stereo partly drawn) [Compound 17] | > 10000 | 1.7 |
| Cc1ccc(C2(n3cncc3CN3CCN(S(=O)(=O)c4cnc(N5CCN(C)CC5)s4)CC3)CC2)nc1 [Compound 31] | > 10000 | 4.4 |
| C[C@H](c1ccc(F)cc1)n1cncc1CN1CCN(S(=O)(=O)c2cncc(N3CCNCC3)c2)CC1 [Compound 29] | 1440 | 2.9 |
| C[C@H](c1ccc(F)cc1)n1cncc1CN1CCN(S(=O)(=O)c2cnc(N3CCC4(CC3)CNC(=O)N4)s2)CC1 [Compound 3] | > 10000 | 2.7 |
